The data set is described as follows: Topical application of NSAID with hyaluronic acid to patients: side effects and pain relief. Conditions: for relief of pain: patients using combination with hyaluronic acid (sodium hyaluronate). It counts as in vivo, human. The source says:
(This may be in part because of the clearing of the hyaluronic acid through the lymphatic system from the site).

The text below walks through data of patent publication US20110281947A1, “METHODS OF ADMINISTERING DICLOFENAC COMPOSITIONS FOR TREATING PHOTODAMAGED SKIN” (priority 2004, published 2011).

Regarding `O=C(O)Cc1ccccc1Nc1c(Cl)cccc1Cl` [diclofenac, Ortho-((2,6-dichlorophenyl)amino)phenylacetic acid], the relief of pain result is “dramatic relief of pain immediately”.

`COc1ccc2c(c1)c(CC(=O)O)c(C)n2C(=O)c1ccc(Cl)cc1` [indomethacin]: the relief of pain result is recorded as “dramatic relief of pain immediately”. Also, the “major toxic side effects (gastro-intestinal distress, neurological abnormalities, depression)” value (dissolved in n-methyl glucamine, applied topically with hyaluronic acid, even at elevated amounts) is on record as “no major toxic side effects occur”.
